Laboratory results: ChEMBL document CHEMBL3124840, “Chemical composition of the bark of Tetrapterys mucronata and identification of acetylcholinesterase inhibitory constituents” (J Nat Prod, 2014)

biological target: Acetylcholinesterase (Electrophorus electricus, UniProt O42275)
Sequence (O42275 whole entry): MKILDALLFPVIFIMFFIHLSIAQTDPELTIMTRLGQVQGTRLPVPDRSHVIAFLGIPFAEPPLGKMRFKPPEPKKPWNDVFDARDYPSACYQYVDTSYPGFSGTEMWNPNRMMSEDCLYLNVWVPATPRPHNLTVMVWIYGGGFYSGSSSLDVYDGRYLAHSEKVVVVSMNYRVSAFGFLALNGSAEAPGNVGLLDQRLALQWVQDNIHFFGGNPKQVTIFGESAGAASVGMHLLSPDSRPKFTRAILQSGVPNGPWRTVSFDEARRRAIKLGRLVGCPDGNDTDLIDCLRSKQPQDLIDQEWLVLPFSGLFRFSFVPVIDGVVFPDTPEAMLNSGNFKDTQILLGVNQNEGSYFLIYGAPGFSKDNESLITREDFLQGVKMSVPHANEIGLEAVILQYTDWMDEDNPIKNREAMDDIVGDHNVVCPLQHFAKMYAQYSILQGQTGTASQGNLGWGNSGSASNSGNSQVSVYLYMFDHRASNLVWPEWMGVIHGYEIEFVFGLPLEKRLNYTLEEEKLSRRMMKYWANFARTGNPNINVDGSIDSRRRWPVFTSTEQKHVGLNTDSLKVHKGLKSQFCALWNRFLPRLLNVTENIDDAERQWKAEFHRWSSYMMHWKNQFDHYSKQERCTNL
Description: Inhibition of Electric eel AChE assessed as amount of thiocholine released using acetylthiocholine iodide as substrate after 6 mins by Ellman's method

| SMILES | IC50 [µM] |
| --- | --- |
| CN(C)CCc1c(C(c2c[nH]c3ccccc23)C(O)CO)[nH]c2ccc(O)cc12 (stereo not given) | 11.7 |
| NCCc1c(C(c2c[nH]c3ccccc23)C(O)CO)[nH]c2ccc(O)cc12 (stereo not given) | 12.7 |
| CNCCc1c[nH]c2ccc(OC)cc12 | 12.5 |
| CN(C)CCc1c[nH]c2ccc(O)cc12 [BUFOTENINE] | 11.4 |
| COc1ccc2[nH]cc(CCN(C)C)c2c1 [MEBUFOTENIN] | 14 |
